Experiments:
[1] = target: Phosphatidylinositol 4-kinase beta (Homo sapiens) (UniProt Q9UBF8); conditions: Compound concentration 1000.0 nM
[2] = target: Serine/threonine-protein kinase PLK4 (Homo sapiens) (UniProt O00444); conditions: Compound concentration 1000.0 nM
[3] = target: D(1B) dopamine receptor (Homo sapiens) (UniProt P21918); conditions: Compound concentration 10.0 uM
[4] = target: Dual serine/threonine and tyrosine protein kinase (Homo sapiens) (UniProt Q6XUX3); conditions: Compound concentration 1000.0 nM
[5] = target: Fibroblast growth factor receptor 1 (Homo sapiens) (UniProt P11362); conditions: Compound concentration 1000.0 nM
[6] = target: Cyclin-dependent kinase 9 (Homo sapiens) (UniProt P50750); conditions: Compound concentration 1000.0 nM
[7] = target: Ribosomal protein S6 kinase alpha-2 (Homo sapiens) (UniProt Q15349); conditions: Compound concentration 1000.0 nM
[8] = target: Dual specificity tyrosine-phosphorylation-regulated kinase 1A (Homo sapiens) (UniProt Q13627); conditions: Compound concentration 1000.0 nM
[9] = target: Dual specificity tyrosine-phosphorylation-regulated kinase 1B (Homo sapiens) (UniProt Q9Y463); conditions: Compound concentration 1000.0 nM
[10] = target: Mitogen-activated protein kinase kinase kinase 15 (Homo sapiens) (UniProt Q6ZN16); conditions: Compound concentration 1000.0 nM
[11] = target: Ribosomal protein S6 kinase alpha-3 (Homo sapiens) (UniProt P51812); conditions: Compound concentration 1000.0 nM
[12] = target: Serine/threonine-protein kinase 32A (Homo sapiens) (UniProt Q8WU08); conditions: Compound concentration 1000.0 nM
[13] = target: Interleukin-1 receptor-associated kinase 4 (Homo sapiens) (UniProt Q9NWZ3); conditions: Compound concentration 1000.0 nM
[14] = target: Macrophage colony-stimulating factor 1 receptor (Homo sapiens) (UniProt P07333); conditions: Compound concentration 1000.0 nM
[15] = target: BDNF/NT-3 growth factors receptor (Homo sapiens) (UniProt Q16620); conditions: Compound concentration 1000.0 nM
[16] = target: Mast/stem cell growth factor receptor Kit (Homo sapiens) (UniProt P10721); conditions: Compound concentration 1000.0 nM
[17] = test system: Phosphatidylinositol 4,5-bisphosphate 3-kinase catalytic subunit alpha isoform (Homo sapiens), P42336 [H1047Y]; conditions: Compound concentration 1000.0 nM
[18] = target: Tyrosine-protein kinase Tec (Homo sapiens) (UniProt P42680); conditions: Compound concentration 1000.0 nM
[19] = target: Ephrin type-B receptor 3 (Homo sapiens) (UniProt P54753); conditions: Compound concentration 1000.0 nM
[20] = target: Phosphatidylinositol 4,5-bisphosphate 3-kinase catalytic subunit gamma isoform (Homo sapiens) (UniProt P48736); conditions: Compound concentration 1000.0 nM
[21] = target: Mitogen-activated protein kinase 9 (Homo sapiens) (UniProt P45984); conditions: Compound concentration 1000.0 nM
[22] = target: MAP/microtubule affinity-regulating kinase 4 (Homo sapiens) (UniProt Q96L34); conditions: Compound concentration 1000.0 nM
[23] = target: Interleukin-1 receptor-associated kinase 1 (Homo sapiens) (UniProt P51617); conditions: Compound concentration 1000.0 nM
[24] = target: Tyrosine-protein kinase TXK (Homo sapiens) (UniProt P42681); conditions: Compound concentration 1000.0 nM
[25] = target: Serine/threonine-protein kinase 4 (Homo sapiens) (UniProt Q13043); conditions: Compound concentration 1000.0 nM
[26] = target: 3-phosphoinositide-dependent protein kinase 1 (Homo sapiens) (UniProt O15530); conditions: Compound concentration 1000.0 nM
[27] = target: Serine/threonine-protein kinase PLK2 (Homo sapiens) (UniProt Q9NYY3); conditions: Compound concentration 1000.0 nM
[28] = target: Serine/threonine-protein kinase DCLK1 (Homo sapiens) (UniProt O15075); conditions: Compound concentration 1000.0 nM
[29] = target: Ephrin type-A receptor 3 (Homo sapiens) (UniProt P29320); conditions: Compound concentration 1000.0 nM
[30] = target: Dual specificity mitogen-activated protein kinase kinase 2 (Homo sapiens) (UniProt P36507); conditions: Compound concentration 1000.0 nM
[31] = target: SNF-related serine/threonine-protein kinase (Homo sapiens) (UniProt Q9NRH2); conditions: Compound concentration 1000.0 nM
[32] = target: Ribosomal protein S6 kinase beta-1 (Homo sapiens) (UniProt P23443); conditions: Compound concentration 1000.0 nM
[33] = target: Activin receptor type-1 (Homo sapiens) (UniProt Q04771); conditions: Compound concentration 1000.0 nM
[34] = target: Dual specificity protein kinase CLK3 (Homo sapiens) (UniProt P49761); conditions: Compound concentration 1000.0 nM
[35] = target: Homeodomain-interacting protein kinase 3 (Homo sapiens) (UniProt Q9H422); conditions: Compound concentration 1000.0 nM
[36] = target: Serine/threonine-protein kinase ICK (Homo sapiens) (UniProt Q9UPZ9); conditions: Compound concentration 1000.0 nM
[37] = target: Epithelial discoidin domain-containing receptor 1 (Homo sapiens) (UniProt Q08345); conditions: Compound concentration 1000.0 nM
[38] = target: Mitogen-activated protein kinase 10 (Homo sapiens) (UniProt P53779); conditions: Compound concentration 1000.0 nM
[39] = target: G protein-coupled receptor kinase 3 (Homo sapiens) (UniProt P35626); conditions: Compound concentration 1000.0 nM
[40] = test system: Phosphatidylinositol 4,5-bisphosphate 3-kinase catalytic subunit alpha isoform (Homo sapiens), P42336 [E545A]; conditions: Compound concentration 1000.0 nM
[41] = target: Serine/threonine-protein kinase 25 (Homo sapiens) (UniProt O00506); conditions: Compound concentration 1000.0 nM
[42] = target: Serine/threonine-protein kinase NLK (Homo sapiens) (UniProt Q9UBE8); conditions: Compound concentration 1000.0 nM
[43] = target: Mitogen-activated protein kinase kinase kinase kinase 5 (Homo sapiens) (UniProt Q9Y4K4); conditions: Compound concentration 1000.0 nM
[44] = target: Serine/threonine-protein kinase SBK1 (Homo sapiens) (UniProt Q52WX2); conditions: Compound concentration 1000.0 nM
[45] = target: Misshapen-like kinase 1 (Homo sapiens) (UniProt Q8N4C8); conditions: Compound concentration 1000.0 nM

Chain of Dual specificity tyrosine-phosphorylation-regulated kinase 1B (Homo sapiens) (Q9Y463 whole entry, looked up): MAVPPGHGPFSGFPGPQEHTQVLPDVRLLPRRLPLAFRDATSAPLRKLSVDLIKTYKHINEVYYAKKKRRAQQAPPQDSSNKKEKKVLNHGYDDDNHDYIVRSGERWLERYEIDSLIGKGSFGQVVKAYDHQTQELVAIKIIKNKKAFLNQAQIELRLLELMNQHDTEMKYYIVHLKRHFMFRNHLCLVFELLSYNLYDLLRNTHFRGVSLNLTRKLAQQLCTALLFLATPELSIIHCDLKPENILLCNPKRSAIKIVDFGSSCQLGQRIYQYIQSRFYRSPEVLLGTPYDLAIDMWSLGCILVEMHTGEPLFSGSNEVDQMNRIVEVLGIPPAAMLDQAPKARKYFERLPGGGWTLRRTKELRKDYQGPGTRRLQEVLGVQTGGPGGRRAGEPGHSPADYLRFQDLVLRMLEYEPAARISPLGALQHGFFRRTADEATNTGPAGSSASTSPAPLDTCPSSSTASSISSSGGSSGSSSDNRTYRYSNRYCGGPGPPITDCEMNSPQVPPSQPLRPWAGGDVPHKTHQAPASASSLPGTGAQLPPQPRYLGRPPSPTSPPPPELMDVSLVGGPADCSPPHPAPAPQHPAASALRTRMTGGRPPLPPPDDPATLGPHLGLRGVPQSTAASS
Chain of Serine/threonine-protein kinase 25 (Homo sapiens) (O00506 whole entry, looked up): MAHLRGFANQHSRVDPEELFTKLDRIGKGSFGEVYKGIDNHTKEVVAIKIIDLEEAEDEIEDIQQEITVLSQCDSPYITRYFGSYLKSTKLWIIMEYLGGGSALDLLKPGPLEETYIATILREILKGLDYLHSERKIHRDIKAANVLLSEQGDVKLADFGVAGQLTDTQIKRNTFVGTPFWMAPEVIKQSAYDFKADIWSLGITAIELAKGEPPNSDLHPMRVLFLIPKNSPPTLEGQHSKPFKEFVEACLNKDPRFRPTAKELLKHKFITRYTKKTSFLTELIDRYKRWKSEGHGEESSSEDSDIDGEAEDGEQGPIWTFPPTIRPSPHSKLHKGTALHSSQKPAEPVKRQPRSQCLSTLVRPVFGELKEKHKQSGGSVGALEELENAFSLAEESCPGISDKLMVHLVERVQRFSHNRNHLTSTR
Chain of Ephrin type-B receptor 3 (Homo sapiens) (P54753 whole entry, canonical isoform): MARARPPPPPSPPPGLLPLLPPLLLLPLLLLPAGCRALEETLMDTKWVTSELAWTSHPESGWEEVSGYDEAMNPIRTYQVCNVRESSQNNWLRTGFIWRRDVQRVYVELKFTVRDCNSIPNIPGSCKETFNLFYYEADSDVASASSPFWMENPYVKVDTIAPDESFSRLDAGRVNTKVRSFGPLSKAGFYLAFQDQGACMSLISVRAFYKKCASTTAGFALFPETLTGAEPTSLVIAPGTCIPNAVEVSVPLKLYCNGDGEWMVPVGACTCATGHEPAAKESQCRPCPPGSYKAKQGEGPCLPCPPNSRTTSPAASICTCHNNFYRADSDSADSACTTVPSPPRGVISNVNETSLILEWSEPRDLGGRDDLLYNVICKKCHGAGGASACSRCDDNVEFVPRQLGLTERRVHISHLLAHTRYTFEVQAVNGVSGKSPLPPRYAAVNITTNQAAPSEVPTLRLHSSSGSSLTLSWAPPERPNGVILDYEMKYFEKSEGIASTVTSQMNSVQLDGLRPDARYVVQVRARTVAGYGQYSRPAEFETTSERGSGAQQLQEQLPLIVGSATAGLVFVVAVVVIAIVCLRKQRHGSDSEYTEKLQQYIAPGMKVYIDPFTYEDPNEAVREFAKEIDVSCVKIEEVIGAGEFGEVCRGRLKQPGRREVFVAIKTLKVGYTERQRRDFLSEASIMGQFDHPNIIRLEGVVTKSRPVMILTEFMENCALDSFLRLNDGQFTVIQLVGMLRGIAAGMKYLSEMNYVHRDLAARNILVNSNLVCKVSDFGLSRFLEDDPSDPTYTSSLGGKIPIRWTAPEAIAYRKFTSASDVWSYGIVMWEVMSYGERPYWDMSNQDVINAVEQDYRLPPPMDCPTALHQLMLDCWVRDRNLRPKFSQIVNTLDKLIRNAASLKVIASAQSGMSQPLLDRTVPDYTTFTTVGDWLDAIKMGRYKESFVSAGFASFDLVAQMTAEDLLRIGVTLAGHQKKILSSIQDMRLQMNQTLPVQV
Chain of Mitogen-activated protein kinase 9 (Homo sapiens) (P45984 whole entry, looked up): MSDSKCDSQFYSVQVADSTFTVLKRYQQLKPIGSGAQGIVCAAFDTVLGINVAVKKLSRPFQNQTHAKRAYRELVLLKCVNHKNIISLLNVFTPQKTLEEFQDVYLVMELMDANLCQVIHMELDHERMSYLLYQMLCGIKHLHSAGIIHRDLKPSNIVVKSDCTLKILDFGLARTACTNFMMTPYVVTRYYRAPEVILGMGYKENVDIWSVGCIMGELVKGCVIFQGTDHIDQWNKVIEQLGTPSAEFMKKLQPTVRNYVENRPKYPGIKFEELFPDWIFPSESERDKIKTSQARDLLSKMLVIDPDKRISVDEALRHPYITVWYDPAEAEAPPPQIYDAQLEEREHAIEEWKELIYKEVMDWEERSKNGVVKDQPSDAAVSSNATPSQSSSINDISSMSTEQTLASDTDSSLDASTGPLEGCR
Chain of 3-phosphoinositide-dependent protein kinase 1 (Homo sapiens) (O15530 whole entry): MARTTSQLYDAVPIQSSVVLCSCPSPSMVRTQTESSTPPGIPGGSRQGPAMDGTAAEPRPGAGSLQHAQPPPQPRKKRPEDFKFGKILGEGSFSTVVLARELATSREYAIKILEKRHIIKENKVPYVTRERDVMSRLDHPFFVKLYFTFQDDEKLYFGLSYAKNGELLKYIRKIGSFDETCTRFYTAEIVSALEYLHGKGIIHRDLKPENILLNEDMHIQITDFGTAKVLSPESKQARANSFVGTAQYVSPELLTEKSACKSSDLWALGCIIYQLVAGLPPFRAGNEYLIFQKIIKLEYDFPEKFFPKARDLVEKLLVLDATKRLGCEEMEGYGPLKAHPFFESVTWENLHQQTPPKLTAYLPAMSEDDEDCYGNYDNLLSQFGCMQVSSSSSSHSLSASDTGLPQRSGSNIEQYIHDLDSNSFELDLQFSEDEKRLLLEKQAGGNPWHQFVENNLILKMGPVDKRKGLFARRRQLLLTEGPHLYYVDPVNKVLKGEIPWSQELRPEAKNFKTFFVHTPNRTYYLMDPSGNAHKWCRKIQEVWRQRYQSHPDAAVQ
Chain of Cyclin-dependent kinase 9 (Homo sapiens) (P50750 whole entry): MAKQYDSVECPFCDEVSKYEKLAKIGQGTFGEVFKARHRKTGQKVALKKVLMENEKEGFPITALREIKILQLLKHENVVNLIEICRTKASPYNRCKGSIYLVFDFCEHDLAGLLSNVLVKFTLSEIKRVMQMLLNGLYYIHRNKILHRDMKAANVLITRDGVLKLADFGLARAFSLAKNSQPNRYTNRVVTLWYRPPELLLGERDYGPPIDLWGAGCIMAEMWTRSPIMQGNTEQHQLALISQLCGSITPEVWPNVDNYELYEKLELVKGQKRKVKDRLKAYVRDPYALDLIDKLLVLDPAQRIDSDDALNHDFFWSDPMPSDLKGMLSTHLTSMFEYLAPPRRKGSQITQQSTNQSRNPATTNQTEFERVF
Chain of Serine/threonine-protein kinase PLK2 (Homo sapiens) (Q9NYY3 whole entry, looked up): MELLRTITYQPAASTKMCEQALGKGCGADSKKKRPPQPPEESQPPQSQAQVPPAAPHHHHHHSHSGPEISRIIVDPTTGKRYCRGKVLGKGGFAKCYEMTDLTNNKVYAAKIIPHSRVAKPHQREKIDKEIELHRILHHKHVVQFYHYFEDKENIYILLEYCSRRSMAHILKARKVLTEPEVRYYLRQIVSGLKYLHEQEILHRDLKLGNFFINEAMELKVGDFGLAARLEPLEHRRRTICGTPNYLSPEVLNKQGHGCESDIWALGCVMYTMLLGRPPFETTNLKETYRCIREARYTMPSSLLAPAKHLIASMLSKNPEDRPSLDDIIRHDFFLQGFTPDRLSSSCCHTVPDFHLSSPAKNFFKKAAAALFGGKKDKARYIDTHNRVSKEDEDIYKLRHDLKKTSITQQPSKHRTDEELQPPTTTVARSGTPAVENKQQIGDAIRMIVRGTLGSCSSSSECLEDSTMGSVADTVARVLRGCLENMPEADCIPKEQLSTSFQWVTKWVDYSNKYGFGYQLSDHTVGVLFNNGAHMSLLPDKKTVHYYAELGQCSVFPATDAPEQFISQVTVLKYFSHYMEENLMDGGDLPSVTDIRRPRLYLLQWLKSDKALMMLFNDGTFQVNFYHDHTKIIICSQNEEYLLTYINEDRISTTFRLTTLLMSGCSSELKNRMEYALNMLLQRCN
Chain of Activin receptor type-1 (Homo sapiens) (Q04771 whole entry): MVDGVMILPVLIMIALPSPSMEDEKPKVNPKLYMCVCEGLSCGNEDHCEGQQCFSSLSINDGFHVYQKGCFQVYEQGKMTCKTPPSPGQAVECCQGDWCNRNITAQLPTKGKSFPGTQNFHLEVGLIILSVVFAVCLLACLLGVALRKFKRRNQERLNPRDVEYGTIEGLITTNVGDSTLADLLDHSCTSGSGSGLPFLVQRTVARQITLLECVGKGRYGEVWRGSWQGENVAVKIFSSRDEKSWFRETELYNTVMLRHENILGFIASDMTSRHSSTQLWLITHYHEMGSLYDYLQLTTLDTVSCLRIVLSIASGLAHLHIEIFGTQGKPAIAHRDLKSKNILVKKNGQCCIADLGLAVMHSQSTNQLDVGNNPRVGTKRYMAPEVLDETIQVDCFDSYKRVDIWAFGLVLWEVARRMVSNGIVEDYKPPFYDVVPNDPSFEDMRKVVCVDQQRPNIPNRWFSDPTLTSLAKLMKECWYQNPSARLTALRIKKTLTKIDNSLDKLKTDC
Chain of Dual specificity mitogen-activated protein kinase kinase 2 (Homo sapiens) (P36507 whole entry): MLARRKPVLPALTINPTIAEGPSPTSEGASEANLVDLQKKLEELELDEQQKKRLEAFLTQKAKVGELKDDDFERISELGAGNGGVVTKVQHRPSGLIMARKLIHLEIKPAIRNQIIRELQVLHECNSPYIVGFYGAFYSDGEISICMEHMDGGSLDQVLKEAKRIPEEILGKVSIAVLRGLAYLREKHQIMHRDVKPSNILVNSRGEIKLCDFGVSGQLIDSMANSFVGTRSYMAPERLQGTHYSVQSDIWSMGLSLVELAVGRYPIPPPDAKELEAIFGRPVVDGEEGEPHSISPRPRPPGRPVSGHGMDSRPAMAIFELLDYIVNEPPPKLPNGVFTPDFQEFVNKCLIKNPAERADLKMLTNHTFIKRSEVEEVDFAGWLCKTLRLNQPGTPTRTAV

`C[C@H](c1cccc(C#N)c1)n1cc(Cl)cc(C(N)=O)c1=N` [(R)-9s] was tested, and the residual activity [1] was 100%, the residual activity [2] was 100% and the inhibition [3] was 10.7%. It also gave a residual activity [4] of 83%, a residual activity [5] of 95% and a residual activity [6] of 84%. The residual activity [7] was 62%, the residual activity [8] was 65% and the residual activity [9] was 63%. It also gave a residual activity [10] of 81%, a residual activity [11] of 95% and a residual activity [12] of 100%. It also gave a residual activity [13] of 82%, a residual activity [14] of 100% and a residual activity [15] of 100%. The residual activity [16] was 98%, the residual activity [17] was 95% and the residual activity [18] was 100%. It also gave a residual activity [19] of 78%, a residual activity [20] of 98% and a residual activity [21] of 96%. It also gave a residual activity [22] of 99%, a residual activity [23] of 71% and a residual activity [24] of 85%. It also gave a residual activity [25] of 100%, a residual activity [26] of 100% and a residual activity [27] of 92%. For the same molecule, the residual activity [28] was 76%, the residual activity [29] was 100% and the residual activity [30] was 80%. The residual activity [31] was 100%, the residual activity [32] was 100% and the residual activity [33] was 88%. For the same molecule, the residual activity [34] was 100%, the residual activity [35] was 81% and the residual activity [36] was 98%. For the same molecule, the residual activity [37] was 98%, the residual activity [38] was 100% and the residual activity [39] was 76%. For the same molecule, the residual activity [40] was 100%, the residual activity [41] was 100% and the residual activity [42] was 44%. It also gave a residual activity [43] of 100%, a residual activity [44] of 83% and a residual activity [45] of 88%.
`C[C@@H](c1cccc(C#N)c1)n1cc(Cl)cc(C(N)=O)c1=N` [(S)-9s] gave a residual activity [1] of 85%, a residual activity [2] of 100% and an inhibition [3] of 16.1%. For the same molecule, the residual activity [4] was 87%, the residual activity [5] was 91% and the residual activity [6] was 91%. It also gave a residual activity [7] of 100%, a residual activity [8] of 75% and a residual activity [9] of 37%. It also gave a residual activity [10] of 98%, a residual activity [11] of 94% and a residual activity [12] of 100%. The residual activity [13] was 87%, the residual activity [14] was 100% and the residual activity [15] was 100%. For the same molecule, the residual activity [16] was 78%, the residual activity [17] was 100% and the residual activity [18] was 88%. It also gave a residual activity [19] of 85%, a residual activity [20] of 100% and a residual activity [21] of 82%. For the same molecule, the residual activity [22] was 100%, the residual activity [23] was 76% and the residual activity [24] was 68%. For the same molecule, the residual activity [25] was 100%, the residual activity [26] was 100% and the residual activity [27] was 97%. The residual activity [28] was 98%, the residual activity [29] was 92% and the residual activity [30] was 76%. For the same molecule, the residual activity [31] was 100%, the residual activity [32] was 100% and the residual activity [33] was 96%. The residual activity [34] was 100%, the residual activity [35] was 70% and the residual activity [36] was 81%. It also gave a residual activity [37] of 88%, a residual activity [38] of 100% and a residual activity [39] of 81%. It also gave a residual activity [40] of 98%, a residual activity [41] of 100% and a residual activity [42] of 91%. It also gave a residual activity [43] of 96%, a residual activity [44] of 99% and a residual activity [45] of 96%.

Reference: ChEMBL document CHEMBL4507301 (2021)
